Measured values: US8680010B2, “Synergistic herbicidal composition containing penoxsulam and florasulam” (Dow AgroSciences, LLC., priority 2011, dated 2014)

What was measured:
Format in all cases: in vivo
[1] = tested on: horseweed (Conyza canadensis (L.) Cronq.); assay: Field weed control by penoxsulam plus florasulam, ERICA; details: 99-175 DAA
Method: (§1) Field trials were conducted in olive tree crops in Spain using standard herbicide small plot research methodology. Plot size was typical for small plot research in tree crops, varying from 4 to 10 meters (m) wide by 4 to 10 m long. […] Soil types ranged from coarse to medium to fine soil texture. Perennial olive crops were transplanted by hand into orchards as per normal local cultural practices. The olive crop was grown using normal cultural practices for fertilization, watering and maintenance to ensure good growth of the crop and the weeds.
(§2) Treatments were applied by backpack sprayer using either compressed air or CO2, at spray pressures at 300 kilopascals (kPa). Spray tips were typically Flat Fan Teejet nozzles, such as FanJet 120 or Teejet 11003 VP. Spray volumes were approximately 300 liters per hectare (L/ha). […]
(§3) For each treatment, the appropriate formulated product amount to treat the plot area, to achieve the desired application rate, based on unit area of application (hectare), was calculated, measured, and mixed in water prior to applying with the backpack sprayer […]

[2] = tested on: field madder (Sherardia arvensis L.); assay: Field weed control by penoxsulam plus florasulam, SHRAR; details: 99-175 DAA
Method: as §1, §2, §3

[3] = tested on: chamomile, mayweed (Anthemis cotula L.); assay: Field weed control by penoxsulam plus florasulam, ANTCO; details: 30-45 DAA
Method: as §1
(§4) Treatments were applied by backpack sprayer using either compressed air or CO2, at spray pressures at 300 kilopascals (kPa). Spray tips were typically Flat Fan Teejet nozzles, such as FanJet 120 or Teejet 11003 VP. Spray volumes were approximately 300 liters per hectare (L/ha). The weed spectrum included, but was not limited to, chamomile, (Anthemis cotula L., […]), field marigold (Calendula arvensis, CLDAR), henbit (Lamium amplexicaule L, LAMAM), annual sowthistle (Sonchus oleraceus L., SONOL), common mallow (Malva neglecta Wallr., MALNE), corn salad (Valerianella echinata, VLLEC), horseweed (Conyza canadensis (L.) Cronq., ERICA), field madder (Sherardia arvensis L., SHRAR), and sowthistle (Sonchus species, SONSS). Treatments were applied preemergence or early postemergence to the stage of the weeds. Olive tree spacings were typically rows that were 7 to 8 m apart, and trees in the row were from 4 to 6 m apart.
(§5) For each treatment, the appropriate formulated product amount to treat the plot area, to achieve the desired application rate, based on unit area of application (hectare), was calculated, measured, and mixed in water prior to applying with the backpack sprayer
(§6) Treatments were rated as compared to the untreated control plots.
(§7) The treated plots and control plots were rated blind at various intervals after application. Ratings were based of Percent (%) Visual weed control, where 0 corresponds to no injury and 100 corresponds to complete kill.
(§8) The following equation was used to calculate the expected activity of mixtures containing two active ingredients, A and B: Expected=A+B−(A×B/100)
(§9) A=observed efficacy of active ingredient A at the same concentration as used in the mixture;
(§10) B=observed efficacy of active ingredient B at the same concentration as used in the mixture.

[4] = tested on: henbit (Lamium amplexicaule L.); assay: Field weed control by penoxsulam plus florasulam, LAMAM; details: 30-45 DAA
Method: as §1, §4, §5, §6, §7, §8, §9, §10

[5] = tested on: corn salad (Valerianella echinata); assay: Field weed control by penoxsulam plus florasulam, VLLEC; details: 90 DAA
Method: as §1, §4, §5, §6, §7, §8, §9, §10

[6] = tested on: annual sowthistle (Sonchus oleraceus L.); assay: Field weed control by penoxsulam plus florasulam, SONOL; details: 30-45 DAA
Method: as §1, §4, §5, §6, §7, §8, §9, §10

[7] = tested on: common mallow (Malva neglecta Wallr.); assay: Field weed control by penoxsulam plus florasulam, MALNE; details: 90 DAA
Method: as §1, §2, §3

[8] = tested on: field marigold (Calendula arvensis); assay: Field weed control by penoxsulam plus florasulam, CLDAR; details: 30-45 DAA
Method: as §1, §2, §3

[9] = tested on: sowthistle (Sonchus species); assay: Field weed control by penoxsulam plus florasulam, SONSS; details: 99-175 DAA
Method: as §1, §2, §3

Q: COc1ncc(F)c2nc(S(=O)(=O)Nc3c(F)cccc3F)nn12 [Florasulam, N-(2,6-difluorophenyl)-8-fluoro-5-methoxy[1,2,4]-triazolo[1,5-c]pyrimidine-2-sulfonamide] was tested. Which “% Control ERICA Obs” value ([1]; florasulam 7.5 gai/ha) did it give?
A: The value was 51%.

Q: What about the “% Control SHRAR Obs” value ([2]; florasulam 7.5 gai/ha) of the same molecule?
A: The value was 0%.

Q: What about the “% Control ANTCO Obs” value ([3]; florasulam 5 gai/ha) of the same molecule?
A: The value was 50%.

Q: And the “% Control ANTCO Obs” value ([3]; florasulam 6.3 gai/ha)?
A: The value was 69%.

Q: And the “% Control ANTCO Obs” value ([3]; florasulam 7.5 gai/ha)?
A: The value was 95%.

Q: And the “% Control LAMAM Obs” value ([4]; florasulam 5 gai/ha)?
A: Its value is 5%.

Q: And the “% Control LAMAM Obs” value ([4]; florasulam 6.3 gai/ha)?
A: The value was 30%.

Q: And the “% Control LAMAM Obs” value ([4]; florasulam 7.5 gai/ha)?
A: Its value is 30%.

Q: What about the “% Control VLLEC Obs” value ([5]; florasulam 5 gai/ha) of the same molecule?
A: Its value is 10%.

Q: And the “% Control VLLEC Obs” value ([5]; florasulam 6.3 gai/ha)?
A: The value was 10%.

Q: What about the “% Control SONOL Obs” value ([6]; florasulam 5 gai/ha) of the same molecule?
A: Its value is 50%.

Q: And the “% Control SONOL Obs” value ([6]; florasulam 6.3 gai/ha)?
A: The value was 60%.

Q: What about the “% Control SONOL Obs” value ([6]; florasulam 7.5 gai/ha) of the same molecule?
A: The value was 60%.

Q: And the “% Control MALNE Obs” value ([7]; florasulam 5 gai/ha)?
A: The value was 50%.

Q: What about the “% Control CLDAR Obs” value ([8]; florasulam 5 gai/ha) of the same molecule?
A: Its value is 40%.

Q: What about the “% Control SONSS Obs” value ([9]; florasulam 7.5 gai/ha) of the same molecule?
A: Its value is 8%.

Q: Which results are given for COc1cnc(OC)n2nc(NS(=O)(=O)c3c(OCC(F)F)cccc3C(F)(F)F)nc12 [Penoxsulam]?
A: % Control ERICA Obs ([1]; penoxsulam 20 gai/ha): 23%; % Control SHRAR Obs ([2]; penoxsulam 20 gai/ha): 0%; % Control ANTCO Obs ([3]; penoxsulam 10 gai/ha): 0%; % Control ANTCO Obs ([3]; penoxsulam 13 gai/ha): 5%; % Control ANTCO Obs ([3]; penoxsulam 15 gai/ha): 5%; % Control LAMAM Obs ([4]; penoxsulam 10 gai/ha): 0%; % Control LAMAM Obs ([4]; penoxsulam 13 gai/ha): 0%; % Control LAMAM Obs ([4]; penoxsulam 15 gai/ha): 4%; % Control VLLEC Obs ([5]; penoxsulam 10 gai/ha): 80%; % Control VLLEC Obs ([5]; penoxsulam 13 gai/ha): 80%; % Control SONOL Obs ([6]; penoxsulam 10 gai/ha): 0%; % Control SONOL Obs ([6]; penoxsulam 13 gai/ha): 2%; % Control SONOL Obs ([6]; penoxsulam 15 gai/ha): 5%; % Control MALNE Obs ([7]; penoxsulam 10 gai/ha): 8%; % Control CLDAR Obs ([8]; penoxsulam 10 gai/ha): 5%; % Control SONSS Obs ([9]; penoxsulam 20 gai/ha): 53%
